From article PMC10893631, “Receptor-based pharmacophore modeling, molecular docking, synthesis and biological evaluation of novel VEGFR-2, FGFR-1, and BRAF multi-kinase inhibitors” (BMC Chemistry, 2024)

Legend:
Assay in all cases: NCI SRB growth inhibition (single dose 10 µM / five-dose)
Assay type in all cases: cell-based, human
786–0 = settings: Homo sapiens; for inhibition at 10 µM: 786–0 (Renal cancer), read-out: GI%
In short: (§1)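 Growth inhibition is derived from seven absorbance readings per agent (Tz, C and five Ti). Where a parameter level is not reached or is exceeded, the value is given as greater or less than the highest or lowest concentration tested.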

BT-549 = settings: Homo sapiens; for inhibition at 10 µM: BT-549 (Breast cancer), read-out: GI%; for GI50: BT-549, Breast cancer, five-dose
In short: as §1

CAKI-1 = settings: Homo sapiens; for inhibition at 10 µM: CAKI-1 (Renal cancer), read-out: GI%; for GI50: CAKI-1, Renal cancer, five-dose
In short: as §1

DU-145 = settings: Homo sapiens; for inhibition at 10 µM: DU-145 (Prostate cancer), read-out: GI%; for GI50: DU-145, Prostate cancer, five-dose
In short: as §1

HCT-15 = settings: Homo sapiens; for inhibition at 10 µM: HCT-15 (Colon cancer), read-out: GI%; for GI50: HCT-15, Colon cancer, five-dose
In short: as §1

HL-60(TB) = settings: Homo sapiens; for inhibition at 10 µM: HL-60(TB) (Leukemia), read-out: GI%; for GI50: HL-60(TB), Leukemia, five-dose
In short: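 SRB protein stain of fixed cells; compounds tested at one dose (10 µM) or five serial dilutions (10-fold or ½ log), diluted from DMSO stock. Cells plated 24 h before dosing, with a time-zero plate fixed in TCA. Percent growth derived from Tz, control and test absorbances; TGI taken where Ti = Tz.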

HOP-62 = settings: Homo sapiens; for inhibition at 10 µM: HOP-62 (Non-small cell lung cancer), read-out: GI%; for GI50: HOP-62, Non-small cell lung cancer, five-dose
In short: as §1

HT29 = settings: Homo sapiens, HT-29; for inhibition at 10 µM: HT29 (Colon cancer), read-out: GI%
In short: as §1

KM12 = settings: Homo sapiens; for inhibition at 10 µM: KM12 (Colon cancer), read-out: GI%; for GI50: KM12, Colon cancer, five-dose
In short: as §1

LOX IMVI = settings: Homo sapiens; for inhibition at 10 µM: LOX IMVI (Melanoma), read-out: GI%; for GI50: LOX IMVI, Melanoma, five-dose
In short: as §1

MDA-MB-231/ATCC = settings: Homo sapiens; for inhibition at 10 µM: MDA-MB-231/ATCC (Breast cancer), read-out: GI%; for GI50: MDA-MB-231/ATCC, Breast cancer, five-dose
In short: as §1

MDA-MB-435 = settings: Homo sapiens; for inhibition at 10 µM: MDA-MB-435 (Melanoma), read-out: GI%; for GI50: MDA-MB-435, Melanoma, five-dose
In short: as §1

MDA-MB-468 = settings: Homo sapiens; for inhibition at 10 µM: MDA-MB-468 (Breast cancer), read-out: GI%; for GI50: MDA-MB-468, Breast cancer, five-dose
In short: as §1

NCI-H522 = settings: Homo sapiens; for inhibition at 10 µM: NCI-H522 (Non-small cell lung cancer), read-out: GI%; for GI50: NCI-H522, Non-small cell lung cancer, five-dose
In short: as §1

NCI/ADR-RES = settings: Homo sapiens; for inhibition at 10 µM: NCI/ADR-RES (Ovarian cancer), read-out: GI%; for GI50: NCI/ADR-RES, Ovarian cancer, five-dose
In short: as §1

RXF 393 = settings: Homo sapiens; for inhibition at 10 µM: RXF 393 (Renal cancer), read-out: GI%; for GI50: RXF 393, Renal cancer, five-dose
In short: as §1

SF-268 = settings: Homo sapiens; for inhibition at 10 µM: SF-268 (CNS cancer), read-out: GI%; for GI50: SF-268, CNS cancer, five-dose
In short: as §1

SF-539 = settings: Homo sapiens; for inhibition at 10 µM: SF-539 (CNS cancer), read-out: GI%; for GI50: SF-539, CNS cancer, five-dose
In short: as §1

SK-MEL-5 = settings: Homo sapiens; for inhibition at 10 µM: SK-MEL-5 (Melanoma), read-out: GI%; for GI50: SK-MEL-5, Melanoma, five-dose
In short: as §1

SK-OV-3 = settings: Homo sapiens; for inhibition at 10 µM: SK-OV-3 (Ovarian cancer), read-out: GI%; for GI50: SK-OV-3, Ovarian cancer, five-dose
In short: as §1

SNB-19 = settings: Homo sapiens; for inhibition at 10 µM: SNB-19 (CNS cancer), read-out: GI%; for GI50: SNB-19, CNS cancer, five-dose
In short: as §1

SNB-75 = settings: Homo sapiens; for inhibition at 10 µM: SNB-75 (CNS cancer), read-out: GI%
In short: as §1

SR = settings: Homo sapiens; for inhibition at 10 µM: SR (Leukemia), read-out: GI%; for GI50: SR, Leukemia, five-dose
In short: as §1

In the case of `COc1cccc(C=NNC(=O)c2ccc3[nH]c(-c4ccccc4)nc3c2)c1` [8c, N'-(3-Methoxybenzylidene)-2-phenyl-1H-benzo[d]imidazole-5-carbohydrazide], the inhibition at 10 µM (786–0) is reported as 21.3%, the inhibition at 10 µM (BT-549) is reported as less than 5% and the inhibition at 10 µM (CAKI-1) is reported as 10%. It also gave an inhibition at 10 µM (DU-145) of 18.4%, an inhibition at 10 µM (HCT-15) of 27.5% and an inhibition at 10 µM (HL-60(TB)) of 38.1%. The inhibition at 10 µM (HOP-62) was 15.4%, the inhibition at 10 µM (HT29) was 33.9% and the inhibition at 10 µM (KM12) was 26%. For the same compound, the inhibition at 10 µM (LOX IMVI) was less than 5%, the inhibition at 10 µM (MDA-MB-231/ATCC) was less than 5% and the inhibition at 10 µM (MDA-MB-435) was 18.9%. The inhibition at 10 µM (MDA-MB-468) was 22.7%, the inhibition at 10 µM (NCI-H522) was 26% and the inhibition at 10 µM (NCI/ADR-RES) was 6.59%. For the same compound, the inhibition at 10 µM (RXF 393) was 29.2%, the inhibition at 10 µM (SF-268) was 15.1% and the inhibition at 10 µM (SF-539) was 28.6%. For the same compound, the inhibition at 10 µM (SK-MEL-5) was 39%, the inhibition at 10 µM (SK-OV-3) was 64% and the inhibition at 10 µM (SNB-19) was less than 5%. It also gave an inhibition at 10 µM (SNB-75) of 11% and an inhibition at 10 µM (SR) of 36.3%.
Work on `COc1cccc(C=NNC(=O)c2ccc3[nH]c(-c4ccccc4)nc3c2)c1O` [8d, N'-(2-hydroxy-3-methoxybenzylidene)-2-phenyl-1H-benzo[d]imidazole-5-carbohydrazide] yielded an inhibition at 10 µM (786–0) of 86%, a GI50 (786–0; 786–0, Renal cancer, five-dose) of 2470 nM and an inhibition at 10 µM (BT-549) of 96.6%. The GI50 (BT-549) was 1520 nM, the inhibition at 10 µM (CAKI-1) was 91.6% and the GI50 (CAKI-1) was 2680 nM. For the same compound, the inhibition at 10 µM (DU-145) was 79.7%, the GI50 (DU-145) was 3050 nM and the inhibition at 10 µM (HCT-15) was 71.6%. For the same compound, the GI50 (HCT-15) was 2070 nM, the inhibition at 10 µM (HL-60(TB)) was 90% and the GI50 (HL-60(TB)) was 2420 nM. The GI50 (HOP-62) was 1650 nM, the inhibition at 10 µM (HT29) was 84.5% and the GI50 (HT29; HT29, Colon cancer, five-dose) was 3410 nM. It also gave an inhibition at 10 µM (KM12) greater than 100%, a GI50 (KM12) of 2580 nM and an inhibition at 10 µM (LOX IMVI) of 92.9%. For the same compound, the GI50 (LOX IMVI) was 1340 nM, the inhibition at 10 µM (MDA-MB-231/ATCC) was 94.4% and the GI50 (MDA-MB-231/ATCC) was 2410 nM. For the same compound, the inhibition at 10 µM (MDA-MB-435) was 74.6%, the GI50 (MDA-MB-435) was 4690 nM and the inhibition at 10 µM (MDA-MB-468) was greater than 100%. It also gave a GI50 (MDA-MB-468) of 890 nM, an inhibition at 10 µM (NCI-H522) greater than 100% and a GI50 (NCI-H522) of 1970 nM. It also gave an inhibition at 10 µM (NCI/ADR-RES) of 48%, a GI50 (NCI/ADR-RES) of 4650 nM and an inhibition at 10 µM (RXF 393) of 86%. The GI50 (RXF 393) was 3210 nM, the inhibition at 10 µM (SF-268) was 99% and the GI50 (SF-268) was 1760 nM. The inhibition at 10 µM (SF-539) was greater than 100%, the GI50 (SF-539) was 1310 nM and the inhibition at 10 µM (SK-MEL-5) was greater than 100%. The GI50 (SK-MEL-5) was 1400 nM, the GI50 (SK-OV-3) was 2560 nM and the inhibition at 10 µM (SNB-19) was 90.4%. The GI50 (SNB-19) was 2410 nM, the inhibition at 10 µM (SNB-75) was 99.2% and the inhibition at 10 µM (SR) was 77%. The GI50 (SR) was 1800 nM.
For `COc1ccc(C=NNC(=O)c2ccc3[nH]c(-c4ccccc4)nc3c2)cc1O` [8e, N'-(3-Hydroxy-4-methoxybenzylidene)-2-phenyl-1H-benzo[d]imidazole-5-carbohydrazide], the inhibition at 10 µM (786–0) was 16.6%, the inhibition at 10 µM (BT-549) was less than 5% and the inhibition at 10 µM (CAKI-1) was 17.6%. It also gave an inhibition at 10 µM (DU-145) of less than 5%, an inhibition at 10 µM (HCT-15) of less than 5% and an inhibition at 10 µM (HL-60(TB)) of 24.7%. The inhibition at 10 µM (HOP-62) was 21.4%, the inhibition at 10 µM (HT29) was 95.8% and the inhibition at 10 µM (KM12) was 21.9%. It also gave an inhibition at 10 µM (LOX IMVI) of less than 5%, an inhibition at 10 µM (MDA-MB-231/ATCC) of less than 5% and an inhibition at 10 µM (MDA-MB-435) of 30.4%. It also gave an inhibition at 10 µM (MDA-MB-468) of 7.65%, an inhibition at 10 µM (NCI-H522) of 29.4% and an inhibition at 10 µM (NCI/ADR-RES) of less than 5%. For the same compound, the inhibition at 10 µM (RXF 393) was less than 5%, the inhibition at 10 µM (SF-268) was 16% and the inhibition at 10 µM (SF-539) was 32.2%. It also gave an inhibition at 10 µM (SK-MEL-5) of 39.5%, an inhibition at 10 µM (SK-OV-3) of 56.3% and an inhibition at 10 µM (SNB-19) of less than 5%. For the same compound, the inhibition at 10 µM (SNB-75) was less than 5% and the inhibition at 10 µM (SR) was 44.1%.
With `COc1ccc(-c2nc3cc(C(=O)NN=Cc4ccccc4O)ccc3[nH]2)cc1` [8h, N'-(2-Hydroxybenzylidene)-2-(4-methoxyphenyl)-1H-benzo[d]imidazole-5-carbohydrazide] the inhibition at 10 µM (786–0) was greater than 100%, the inhibition at 10 µM (BT-549) was greater than 100% and the GI50 (BT-549) was 6990 nM. The inhibition at 10 µM (CAKI-1) was greater than 100%, the GI50 (CAKI-1) was 1780 nM and the inhibition at 10 µM (DU-145) was greater than 100%. It also gave a GI50 (DU-145) of 2330 nM, an inhibition at 10 µM (HCT-15) greater than 100% and a GI50 (HCT-15) of 1250 nM. For the same compound, the inhibition at 10 µM (HL-60(TB)) was 82.9%, the GI50 (HL-60(TB)) was 2090 nM and the inhibition at 10 µM (HOP-62) was greater than 100%. For the same compound, the GI50 (HOP-62) was 5090 nM, the inhibition at 10 µM (HT29) was greater than 100% and the inhibition at 10 µM (KM12) was greater than 100%. The GI50 (KM12) was 4240 nM, the inhibition at 10 µM (LOX IMVI) was 98.7% and the GI50 (LOX IMVI) was 2230 nM. For the same compound, the inhibition at 10 µM (MDA-MB-231/ATCC) was 98.7%, the GI50 (MDA-MB-231/ATCC) was 4480 nM and the inhibition at 10 µM (MDA-MB-435) was greater than 100%. The GI50 (MDA-MB-435) was 1950 nM, the inhibition at 10 µM (MDA-MB-468) was greater than 100% and the GI50 (MDA-MB-468) was 2980 nM. It also gave an inhibition at 10 µM (NCI-H522) greater than 100%, a GI50 (NCI-H522) of 1540 nM and an inhibition at 10 µM (NCI/ADR-RES) of 63.2%. It also gave a GI50 (NCI/ADR-RES) of 6740 nM, an inhibition at 10 µM (RXF 393) greater than 100% and a GI50 (RXF 393) of 6290 nM. For the same compound, the inhibition at 10 µM (SF-268) was greater than 100%, the GI50 (SF-268) was 920 nM and the inhibition at 10 µM (SF-539) was greater than 100%. The GI50 (SF-539) was 2050 nM, the inhibition at 10 µM (SK-MEL-5) was greater than 100% and the GI50 (SK-MEL-5) was 1730 nM. The inhibition at 10 µM (SK-OV-3) was greater than 100%, the GI50 (SK-OV-3) was 7300 nM and the inhibition at 10 µM (SNB-19) was greater than 100%. For the same compound, the GI50 (SNB-19) was 1760 nM, the inhibition at 10 µM (SNB-75) was 95.6% and the GI50 (SNB-75; SNB-75, CNS cancer, five-dose) was 390 nM. The inhibition at 10 µM (SR) was 85.9% and the GI50 (SR) was 1170 nM.
